Results: paper PMC7217877, “N-AS-triggered SPMs are direct regulators of microglia in a model of Alzheimer’s disease” (Nature Communications, 2020)
Where “and” joins values, the source holds several entries; their conditions need not be identical. Equal entries are not always repeated.

How the values were obtained:
[1] = tested on: microglia; assay: western blotting for ac-S565 and total COX2 in primary cells; type: cell-based, C57BL/6 mice; parameters: ac-S565, western blotting (Fig 3h): scale not given here; settings: replicates
Procedure: To confirm the generation and roles of N-AS in neurons, cells from E18 C57BL/6 mice were prepared as previously described. Cortices were dissected and then dissociated followed by incubation in papain (Worthington) at 37 °C for 15 min. Neurons were plated on poly-L-lysine-coated coverslips with neuronal culture medium, serum-free Neurobasal medium (Gibco) containing 2% B27 supplements (Gibco), 1 mM Glutamax supplement (Gibco), and 100 U ml^−1 streptomycin/ 100 U ml^−1 penicillin (Gibco) at 37 °C in a humidified atmosphere of 5% CO2. Aβ 1–42 (10 μM, 24 h, Invitrogen, 03112) was exposed to neurons and the cells were analyzed for the generation and roles of N-AS. Primary astrocyte cultures were prepared from C57BL/6 mice as described previously. In brief, after removal of the meninges, postnatal day 7 (P7) mouse brain tissues were minced and incubated in a rocking water bath at 37 °C for 30 min in the presence of 0.25% trypsin-EDTA (Sigma-Aldrich). Enzyme-digested dissociated cells were triturated with astrocyte-specific medium (DMEM/F12 containing 10% FBS and 1% penicillin-streptomycin) and centrifuged at 155×g for 8 min. The pellet was resuspended in astrocyte-specific medium and passed through a 40-μm cell strainer. The filtrate was allowed pre-adherence for 30 min to remove any contamination from fibroblasts before being seeded in dishes and the addition of astrocyte-specific medium. To split the cells, Ara-C was added to the dishes and they were then placed in a heated shaker for 6–7 h. The medium was removed from the dishes, and trypsin-EDTA was added to the dish and incubated at 37 °C for 5–10 min. After centrifugation at 155×g for 8 min, the supernatant was removed, and the astrocytes were maintained in culture by feeding […] with astrocyte-specific medium. Primary microglia cultures were prepared from C57BL/6 mice as described previously. In brief, the cortices of 2-months-old mice were minced in Hibernate A (Gibco)/B27 supplements (Gibco) medium and dissociated using papain (Worthington) solution. After tissue trituration, cells were separated by Optiprep (Sigma-Aldrich) density gradient centrifugation. Microglia were plated with microglia-specific medium (DMEM/F12 containing 10% FBS and 1% penicillin-streptomycin). The immortalized human microglia (Applied Biologics Materials, T0251) were cultured in PriGrow III (Applied Biologics Materials, TM003) (supplemented with 10% FBS and 1% penicillin-streptomycin) at 37 °C in a humidified atmosphere of 5% CO2. In order to assess the clinical importance of N-AS in AD microglia, Aβ 1–42 (50 μM, 24 h, Invitrogen, 03112) was exposed to human microglia before treated with zileuton (50 μM, 24 h, Sigma-Aldrich, Z4277). The human microglia treated with Aβ 1–42 and/or zileuton was incubated with N-AS (2.5 μM, 2 h, Sigma-Aldrich, 01912), and were analyzed for the generation and roles of N-AS.
Samples were lysed in RIPA buffer (Cell signaling Technologies), then subjected to SDS-PAGE and transferred to a nitrocellulose membrane. Membranes were blocked with 5% milk, incubated with primary antibody and then incubated with the appropriate horseradish peroxidase-conjugated secondary antibody. […] We performed densitometric quantification using the ImageJ software (National Institutes of Health). Images have been cropped for presentation.

[2] = target: T1, COX2 WT (Homo sapiens, UniProt P35354); assay: in vitro [14C] acetylation assay of purified COX2; type: biochemical; settings: purified COX2 + 14C-labelled acetyl donor, 2 h, 37 °C, scintillation counter, replicates, in cpm (unit assumed)
T1 construct: His (N); made in house
T1 sequence (P35354 18-604): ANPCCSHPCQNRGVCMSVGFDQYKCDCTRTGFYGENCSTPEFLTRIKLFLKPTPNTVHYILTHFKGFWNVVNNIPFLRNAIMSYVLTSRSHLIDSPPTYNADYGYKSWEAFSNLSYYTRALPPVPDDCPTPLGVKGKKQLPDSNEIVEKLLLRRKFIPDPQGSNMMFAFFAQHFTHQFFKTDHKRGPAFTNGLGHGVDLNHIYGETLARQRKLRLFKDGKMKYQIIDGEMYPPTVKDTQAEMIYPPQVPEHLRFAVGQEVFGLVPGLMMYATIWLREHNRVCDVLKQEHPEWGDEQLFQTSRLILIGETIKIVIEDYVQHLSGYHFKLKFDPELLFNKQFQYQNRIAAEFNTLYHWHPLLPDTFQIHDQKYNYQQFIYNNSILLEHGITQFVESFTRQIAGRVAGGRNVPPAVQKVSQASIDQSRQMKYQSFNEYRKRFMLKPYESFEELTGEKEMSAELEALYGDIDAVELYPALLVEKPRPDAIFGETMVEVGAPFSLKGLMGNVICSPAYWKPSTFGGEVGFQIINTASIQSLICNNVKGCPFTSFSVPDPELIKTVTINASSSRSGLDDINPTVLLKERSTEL

CCCCCCCCCCCCC/C=C/[C@@H](O)[C@@H](N)CO [Sph, sphingosine]
ac-S565, western blotting (Fig 3h) ([1]; Ab 10mM + supplement): 0.2446 and 0.241 and 0.1599 and 0.2328

CC(=O)Oc1ccccc1C(=O)O [Aspirin, acetylsalicylic acid, reference compound]
C14 radioactivity of COX2, acetylation assay (Fig 1b) ([2]; listed as C14 Aspirin): 16445 and 14504 and 14566 and 16561 and 14595 and 14332 and 14859

Ab: Aβ 1–42 (Invitrogen, 03112) used to induce an AD environment in cells
ac-S565, western blotting (Fig 3h) ([1]; Ab 10mM, no supplement): 0.2316 and 0.2169 and 0.2234 and 0.1511
ac-S565 / total COX2, western blotting (Fig 3b) ([1]; Ab 10mM): 0.3907 and 0.4255 and 0.3575 and 0.3077 and 0.4081 and 0.3915

CC(=O)SCCNC(=O)CCNC(=O)[C@H](O)C(C)(C)COP(=O)(O)OP(=O)(O)OC[C@H]1O[C@@H](n2cnc3c(N)ncnc32)[C@H](O)[C@@H]1OP(=O)(O)O [Acetyl-CoA, acetyl-CoA]
ac-S565, western blotting (Fig 3h) ([1]; Ab 10mM + supplement): 1.293 and 1.204 and 1.322 and 1.2834
C14 radioactivity of COX2, acetylation assay (Fig 1b) ([2]; listed as C14 Acetyl CoA): 4565 and 4620 and 4766 and 3817

CCCCCCCCCCCCC/C=C/[C@@H](O)[C@H](CO)NC(C)=O [N-AS, N-((2S,3R,E)-1,3-Dihydroxyoctadec-4-en-2-yl)acetamide]
ac-S565, western blotting (Fig 3h) ([1]; Ab 10mM + supplement): 1.339 and 1.447 and 1.994 and 1.362
C14 radioactivity of COX2, acetylation assay (Fig 1b) ([2]; listed as C14 N-AS): 347557 and 414691 and 285538 and 348458 and 418276 and 416508 and 283195

B1: Sphk1: purified sphingosine kinase1 enzyme (Cayman, 10348) supplemented to cell lysates (protein, UniProt Q9NYA1 1-384, looked up)
Sphingosine kinase 1: MDPAGGPRGVLPRPCRVLVLLNPRGGKGKALQLFRSHVQPLLAEAEISFTLMLTERRNHARELVRSEELGRWDALVVMSGDGLMHEVVNGLMERPDWETAIQKPLCSLPAGSGNALAASLNHYAGYEQVTNEDLLTNCTLLLCRRLLSPMNLLSLHTASGLRLFSVLSLAWGFIADVDLESEKYRRLGEMRFTLGTFLRLAALRTYRGRLAYLPVGRVGSKTPASPVVVQQGPVDAHLVPLEEPVPSHWTVVPDEDFVLVLALLHSHLGSEMFAAPMGRCAAGVMHLFYVRAGVSRAMLLRLFLAMEKGRHMEYECPYLVYVPVVAFRLEPKDGKGVFAVDGELMVSEAVQGQVHPNYFWMVSGCVEPPPSWKPQQMPPPEEPL
ac-S565, western blotting (Fig 3h) ([1]; Ab 10mM + supplement): 0.2731 and 0.2264 and 0.2811 and 0.241
